Like-named read-outs stand apart in the source and are kept apart here.

In one data set the test system is HIV. Kind of data set: HIV-based LUCIA assay, repression of retroviral infection. It counts as cell-based. Conditions: Human immunodeficiency virus 1. Here is the method: The ability of compound (Ia) to repress retroviral infections was assessed using an HIV-based LUCIA assay. The LUCIA assay was carried out as described in WO 03/070726 (see pages 125-126 therein), which is incorporated herein by reference.

Data set [1] in a line: Maximum single tolerable intravenous dose in rats. As to conditions: both sexes, rat, in vivo, highest dose without clinical signs in 4 animals, read-out: Rat MTD (i.v.). Here is the method: (§1) The maximum single tolerable intravenous dose which could be administered to rats and mice was determined. Escalating doses of each compound were given to discrete, naive pairs of animals (1 male and 1 female) until a dose that elicited clinical signs, was reached. Then for each compound, two further animals were then treated with the highest dose that had not produced any clinical signs. […]

The nature of data set [2]: Maximum single tolerable intravenous dose in mice. As to conditions: both sexes, mouse, in vivo, highest dose without clinical signs in 4 animals, read-out: Mouse MTD (i.v.). Here is the method:
as §1

Data set [3] can be described thus: Clonogenic survival assays with chemotherapeutics. Conditions: in vitro clonogenic survival assays. The data set is classed as cell-based.
Data set [4] in a line: Tissue pharmacokinetics, plasma and tumour concentrations. The data set is classed as in vivo. Conditions: mouse, ip, mice, 50 mg/kg i.p., mean; for concentration at 1 h: 1 hr post-dose; for concentration at 4 h: 4 hr post-dose. How it is done: In order to assess tissue pharmacokinetics, a single intraperitoneal (i.p.) dose of 50 mg/kg of each compound was administered to discrete groups of mice. Blood and tumour samples were taken (three mice per time point) at 1 and 4 hours post-dose. The concentration of each compound in both matrices at both time points was determined by HPLC-MS/MS analysis using the method described above for Example 6. The mean concentrations found are presented below.

Data set [5] in a line: Oral bioavailability in mice. It counts as in vivo. As to conditions: mouse, plasma, 10 mg/kg oral vs intravenous, AUC ratio. How it is done:
In order to assess the oral bioavailability of compounds (Ia)-(IV), the compounds were dissolved to 5 mg/ml in an aqueous formulation which was then dosed orally and intravenously at 10 mg/kg to discrete groups of mice. For the intravenously dosed animals, blood samples were taken (three mice per time point) at 3, 5, 15, 30, 60, 120, 240 and 360 minutes post-dose. For the orally dosed animals, blood samples were taken (three mice per time point) at 5, 15, 30, 60, 120, 240 and 360 minutes post-dose. The plasma concentration of each compound at all time points, for both dose routes, was determined by HPLC-MS/MS analysis. The details of the HPLC-MS/MS method are as follows.
Sample was extracted for analysis by homogenisation of tissue, if required, vortex mixing and then centrifugation to produce a compound-containing supernatant that can be assayed by HPLC-MS/MS. Quantitation was achieved by comparison to a serial dilution of a known amount of parent compound. The chromatographic and MS conditions used are given below.
MS conditions were determined by infusing compound dissolved in 50:50 acetonitrile:formic acid (0.01%).
Total exposure as indicated by area under the curve (AUC) was calculated. By definition, intravenous delivery results in 100% bioavailability and the comparative bioavailability obtained through oral delivery is calculated by: [formula]

Where [6] appears, read: plasma, read-out: Plasma concentration.
The mark [7] stands for this setting: tumour, read-out: Tumour concentration.

On to `C[C@@H]1CN(CC(=O)Nc2ccc3c(c2)Cc2cccc(-c4cc(=O)cc(N5CCOCC5)o4)c2S3)C[C@H](C)O1` [Compound (Ia), 2-((2R,6S)-2,6-Dimethyl-morpholin-4-yl)-N-[5-(6-morpholin-4-yl-4-oxo-4H-pyran-2-yl)-9H-thioxanthen-2-yl]-acetamide], for which the IC50 – broadly, the concentration that inhibits the measured activity by half – with HIV was 1300 nM. The MTD (in general, the highest dose tested that stayed within the study's limit of toxicity) in data set [1] is above 100 mg/kg; in data set [2], 75 mg/kg. For the same compound, in data set [3], the “Potentiation of cytotoxic effects of etoposide, camptothecin and doxorubicin” value is on record as “potentiate the cytotoxic effects”. Further, the concentration at 1 h was 31800 ng/mL in data set [4] (setting [6]) and 19700 ng/g in data set [4] (setting [7]). Also, the concentration at 4 h in data set [4] (setting [6]) amounted to 5960 ng/mL; in data set [4] (setting [7]), 4140 ng/g. Also, the bioavailability (as a rule, dose-corrected exposure relative to a reference, in per cent) in data set [5] stood at 37%.

`CN1CCN(CCC(=O)Nc2ccc3c(c2)Cc2cccc(-c4cc(=O)cc(N5CCOCC5)o4)c2S3)CC1` [Compound (II)]: the MTD is 40 mg/kg in data set [1] and below 40 mg/kg in data set [2]. In addition, the concentration at 1 h in data set [4] (setting [6]) came to 3030 ng/mL; in data set [4] (setting [7]), 2810 ng/g. Besides, the concentration at 4 h in data set [4] (setting [6]) is 137 ng/mL; in data set [4] (setting [7]), 1060 ng/g. The bioavailability in data set [5] was 0%.

Turning to `CN1CCN(CCC(=O)Nc2ccc3c(c2)Sc2cccc(-c4cc(=O)cc(N5CCOCC5)o4)c2S3)CC1` [Compound (III)], the MTD in data set [1] is 75 mg/kg; in data set [2], below 40 mg/kg. For the same compound, the concentration at 1 h in data set [4] (setting [6]) is 2030 ng/mL; in data set [4] (setting [7]) it was 1730 ng/g. The concentration at 4 h in data set [4] (setting [6]) is 626 ng/mL; in data set [4] (setting [7]), 2190 ng/g. In data set [5], the bioavailability was found to be 0%.

For `CC(C)N1CCN(CCC(=O)Nc2ccc3c(c2)Sc2cccc(-c4cc(=O)cc(N5CCOCC5)o4)c2S3)CC1` [Compound (IV)], the MTD in data set [2] was below 40 mg/kg. In addition, the concentration at 1 h in data set [4] (setting [6]) stood at 1920 ng/mL; in data set [4] (setting [7]) it was 899 ng/g. Also, the concentration at 4 h in data set [4] (setting [6]) stood at 383 ng/mL; in data set [4] (setting [7]) it was 1090 ng/g. Also, in data set [5], the bioavailability stood at 0%.

These data come from US20070049588A1, “ATM INHIBITOR” (priority 2005, published 2007).
